Experimental data published in the NIST ThermoML archive (doi:10.1021/acs.jced.7b00083).
± gives the expanded uncertainty stated by the source.

Assay: molar enthalpy of vaporization or sublimation
Settings: 298.15 K; Crystal; Static calorimetry

Q: Which molar enthalpy does the source give for S=C1NCCN1 [imidazolidine-2-thione] here?
A: 25.7 ± 0.359 kcal/mol
